In patent US20260116884A1, “PROTAC CHIMERIC COMPOUND, PREPARATION METHOD THEREFOR AND USE THEREOF” (HANGZHOU ZHONGMEIHUADONG PHARMACEUTICAL CO., LTD., priority 2022, published 2026):

These compounds were tested against human HPK1 (Homo sapiens, UniProt Q92918) (assay: Assay of in vitro HPK1 enzymatic activity (ADP-Glo)). Details: 7 nM kinase, 20 uM ATP.
Type: biochemical
Experimental: Compounds were evaluated for their ability to inhibit human HPK1 by IC50 determination using the ADP-Glo method to measure the kinase activity.
Buffer conditions of the enzyme: 50 mM Hepes (pH 7.5), 10 mM MgCl2, 1 mM EGTA, 0.01% Brij35, 2 mM DTT.
Preparation of the Kinase and substrate mixture: the working concentration of the kinase in the HPK1 reaction solution was 7 nM and the working concentration of ATP was 20 uM.
The compound was diluted with DMSO in a dilution plate, with a maximum starting concentration of 1 uM and 10 concentration gradient points (4-fold dilution).
Each of the above 10 concentration gradient points of the compound was then diluted 50-fold into the kinase reaction buffer and shaken on a shaker for 20 min. The kinase was prepared in an enzyme reaction buffer and 2 μl of the HPK1 kinase was added per well of the reaction plate at a HPK1 kinase concentration of 7 nM.
1 μl of diluted compound in the buffer was added per well, and the plate was sealed with a plate sealing film, centrifuged at 1000 g for 30 seconds, and left at room temperature for 10 minutes. An ATP solution was prepared with an enzyme reaction buffer and 2 μl of the ATP solution was added to the reaction plate (the working concentration of ATP was 20 uM). The plate was sealed with a plate sealing film, centrifuged at 1000 g for 30 seconds, and reacted at room temperature for 60 minutes. 4 μL of ADP-Glu was transferred to a 384 reaction plate, centrifuged at 1000 rpm/min for 1 min, and incubated at 25° C. for 40 min. 8 μL of the Detection solution was transferred to a 384 reaction plate, centrifuged at 1000 rpm/min for 1 min, and incubated at 25° C. for 40 min. The RLU (Relative luminescence unit) signal was read using a BMG microplate reader, and the signal intensity was used to characterize the activity level of the kinase.
The kinase activity data was expressed by comparing the kinase activity of the test compound and the blank group (containing only DMSO), and the IC50 value was obtained by curve fitting using the Prism software (GraphPad7.0).

Chain of human HPK1 (Q92918 whole entry): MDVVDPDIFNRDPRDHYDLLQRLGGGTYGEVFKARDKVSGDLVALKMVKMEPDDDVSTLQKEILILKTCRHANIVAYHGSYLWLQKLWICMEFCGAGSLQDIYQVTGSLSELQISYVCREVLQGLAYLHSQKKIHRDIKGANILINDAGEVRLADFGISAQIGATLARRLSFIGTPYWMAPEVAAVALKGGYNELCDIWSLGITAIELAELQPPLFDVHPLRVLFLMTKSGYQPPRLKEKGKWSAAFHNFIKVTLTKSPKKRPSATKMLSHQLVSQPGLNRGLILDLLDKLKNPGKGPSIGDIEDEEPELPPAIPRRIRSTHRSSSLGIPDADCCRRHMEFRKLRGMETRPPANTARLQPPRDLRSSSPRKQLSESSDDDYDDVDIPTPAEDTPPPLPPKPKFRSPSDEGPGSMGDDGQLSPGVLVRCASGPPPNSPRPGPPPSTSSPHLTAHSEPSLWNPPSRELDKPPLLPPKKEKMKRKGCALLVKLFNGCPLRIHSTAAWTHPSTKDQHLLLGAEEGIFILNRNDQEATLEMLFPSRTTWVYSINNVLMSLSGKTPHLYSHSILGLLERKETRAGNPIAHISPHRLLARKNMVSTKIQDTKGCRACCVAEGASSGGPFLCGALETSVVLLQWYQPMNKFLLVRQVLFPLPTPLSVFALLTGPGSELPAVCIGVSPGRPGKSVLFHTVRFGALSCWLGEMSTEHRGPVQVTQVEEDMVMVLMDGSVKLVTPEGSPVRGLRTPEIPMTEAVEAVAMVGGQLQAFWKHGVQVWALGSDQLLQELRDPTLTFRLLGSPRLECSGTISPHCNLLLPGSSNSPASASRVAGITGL

Row | IC50 [nM] | SMILES
1 | 0.2 | CCN1CCC(n2cc(-c3c[nH]c4ncc(-c5ccc(N6CCN(C7CC8(CCN(C(=O)c9ccc(Cl)c(N%10CCC(=O)NC%10=O)c9)CC8)C7)CC6)cc5)nc34)cn2)CC1 [Compound C030]
2 | 0.9 | CCN1CCC(n2cc(-c3c[nH]c4ncc(-c5ccc(N6CCN(C7CCC(NC(=O)c8ccc(Cl)c(N9CCC(=O)NC9=O)c8)CC7)CC6)nc5)nc34)cn2)CC1 (stereo not drawn) [Compound C027]
3 | 27.8 | CCN1CCC(n2cc(-c3c[nH]c4ncc(-c5cnc(OC(C)CNC(=O)c6ccc(Cl)c(N7CCC(=O)NC7=O)c6)c(C)c5)nc34)cn2)CC1 (stereo not drawn) [Compound C043]
4 | 8.8 | CCN1CCC(n2cc(-c3c[nH]c4ncc(-c5cnc(NCCNC(=O)c6cccc(N7CCC(=O)NC7=O)c6)c(C)c5)nc34)cn2)CC1 [Compound C009]
5 | 1.4 | CCN1CCC(n2cc(-c3c[nH]c4ncc(-c5ccc(OCCCNC(=O)c6ccc(Cl)c(N7CCC(=O)NC7=O)c6)c(C)c5)nc34)cn2)CC1 [Compound C039]
6 | 1.5 | CCN1CCC(n2cc(-c3c[nH]c4ncc(-c5cnc(OC6CCN(C(=O)c7cccc(N8CCC(=O)NC8=O)c7)CC6)c(C)c5)nc34)cn2)CC1 [Compound C014]
7 | 5.2 | CCN1CCC(n2cc(-c3c[nH]c4ncc(-c5cnc(N6CCN(C(=O)c7ccc(N8CCC(=O)NC8=O)cc7)CC6)c(C)c5)nc34)cn2)CC1 [Compound C001]
8 | 8.8 | CCN1CCC(n2cc(-c3c[nH]c4ncc(-c5ccc(N6CCN(C(=O)CCOCCNc7cccc8c7C(=O)N(C7CCC(=O)NC7=O)C8=O)CC6)nc5)nc34)cn2)CC1 (stereo not drawn) [Compound C025]
9 | 0.7 | CCN1CCC(n2cc(-c3c[nH]c4ncc(-c5cnc(N6CCN(CC7CN(C(=O)c8cccc(N9CCC(=O)NC9=O)c8)C7)CC6)c(C)c5)nc34)cn2)CC1 [Compound C011]
10 | 5.1 | CCN1CCC(n2cc(-c3c[nH]c4ncc(-c5cnc(OCCN(C)C(=O)c6ccc(Cl)c(N7CCC(=O)NC7=O)c6)c(C)c5)nc34)cn2)CC1 [Compound C045]
11 | 6.4 | CCN1CCC(n2cc(-c3c[nH]c4ncc(-c5ccc(OCCN6CCC(NC(=O)c7ccc(Cl)c(N8CCC(=O)NC8=O)c7)CC6)nc5)nc34)cn2)CC1 [Compound C023]
12 | 50.4 | CCN1CCC(n2cc(-c3c[nH]c4ncc(-c5ccc(OC(C)CNC(=O)c6ccc(Cl)c(N7CCC(=O)NC7=O)c6)nc5)nc34)cn2)CC1 (stereo not drawn) [Compound C044]
13 | 5.2 | CCN1CCC(n2cc(-c3c[nH]c4ncc(-c5cnc(OCC(=O)N6CCC(c7ccc(NC8CCC(=O)NC8=O)cc7)CC6)c(C)c5)nc34)cn2)CC1 (stereo not drawn) [Compound C007]
14 | 3.5 | CCN1CCC(n2cc(-c3c[nH]c4ncc(-c5cnc(OCC(=O)Nc6ccc(NC7CCC(=O)NC7=O)cc6)c(F)c5)nc34)cn2)CC1 (stereo not drawn) [Compound C008]
15 | 1.6 | CCN1CCC(n2cc(-c3c[nH]c4ncc(-c5ccc(N6CCN(C7CCC(NC(=O)c8ccc(Cl)c(N9CCC(=O)NC9=O)c8)CC7)CC6)cc5)nc34)cn2)CC1 (stereo not drawn) [Compound C029]
16 | 21.7 | CCN1CCC(n2cc(-c3c[nH]c4ncc(-c5ccc(OCCCCNC(=O)c6ccc(Cl)c(N7CCC(=O)NC7=O)c6)nc5)nc34)cn2)CC1 [Compound C038]
17 | 2.4 | CCN1CCC(n2cc(-c3c[nH]c4ncc(-c5ccc(OCCNC6CCC(NC(=O)c7ccc(Cl)c(N8CCC(=O)NC8=O)c7)CC6)nc5)nc34)cn2)CC1 (stereo not drawn) [Compound C028]
18 | 2.5 | CCN1CCC(n2cc(-c3c[nH]c4ncc(-c5ccc(OCCNC(=O)c6ccc(Cl)c(N7CCC(=O)NC7=O)c6)cc5)nc34)cn2)CC1 [Compound C035]
19 | 15 | CCN1CCC(n2cc(-c3c[nH]c4ncc(-c5cnc(OCCNC(=O)c6cccc(N7CCC(=O)NC7=O)c6)c(C)c5)nc34)cn2)CC1 [Compound C016]
20 | 14.6 | CCN1CCC(n2cc(-c3c[nH]c4ncc(-c5ccc(OCC(C)(C)CNC(=O)c6ccc(Cl)c(N7CCC(=O)NC7=O)c6)nc5)nc34)cn2)CC1 [Compound C041]
21 | 7.5 | CCN1CCC(n2cc(-c3c[nH]c4ncc(-c5ccc(OCCNC(=O)c6ccc(Cl)c(N7CCC(=O)NC7=O)c6)nc5)nc34)cn2)CC1 [Compound C033]
